Read-outs that look alike come from different tables or passages of the source. *1 amine or outer side, *2 acyl side, *3 side chain or, on linkers, in order; H or OH if unused. Where a SMILES comes first, the peptide text is derived from it. Bridges are numbered along the chain shown (N, C = ends). [ ]: non-standard residue; d: D form. The star is where a group is joined. X1 = CC[C@H](C)[C@@H](N[*:1])[C@@H](O)CC(=O)O[C@H](C(=O)[C@H](C)C(=O)[*:2])C(C)C; X2 = CC[C@H](C)[C@@H](N[*:1])[C@@H](O)CC(=O)[*:2]; NMeY = CN[C@@H](Cc1ccc(O)cc1)C(=O)O; dNMeL = CN[C@H](CC(C)C)C(=O)O; Hiv = CC(C)[C@H](O)C(=O)O; Pyruvoyl = CC(=O)C(=O)*
How the values were obtained:
[1] = tested on: FADU (Pharynx); assay: IC50 Aplidine Family panel (MTT/MTS); type: cell-based; conditions: read-out: IC50 (Molar) Pharynx FADU
[2] = tested on: A549 human lung carcinoma; assay: Cytotoxicity IC50 (after Berjeron et al); conditions: Homo sapiens, A549, read-out: Cytotoxicity of [aa3]-aplidine Congeners IC50 (Molar) A549
Source text: (§1) Methodology: after Berjeron et al, Biochem and Bioph Res. Comm., 1984, 121, 3, 848-854.
(§2) P388=Murine lymphoma. A549=human lung carcinoma. HT-29=human colon carcinoma. MEL-28=human melanoma.
(§3) A549=human lung carcinoma. HT-29=human colon carcinoma. MEL-28=human melanoma.

[3] = tested on: SK-OV-3 (Ovary); assay: IC50 Aplidine Family panel (MTT); type: cell-based
[4] = tested on: Molt 3 (ALL, Acute lymphobalstic); assay: IC50 Aplidine Family panel (MTT/MTS); type: cell-based; conditions: read-out: IC50 (Molar) ALL (Acute lymphobalstic) Molt 3
[5] = tested on: U-937 (Lymphoma, Histiocytic); assay: IC50 Aplidine Family panel (MTT); type: cell-based
[6] = tested on: MEL-28 human melanoma; assay: Cytotoxicity IC50 (after Berjeron et al); conditions: Homo sapiens, SK-MEL-28, read-out: Cytotoxicity of [aa3]-aplidine Congeners IC50 (Molar) MEL28
Source text: as §1, §2, §3

[7] = tested on: 5637 (Bladder); assay: IC50 Aplidine Family panel (MTT/MTS); type: cell-based; conditions: read-out: IC50 (Molar) Bladder 5637
[8] = tested on: PANC-1 (Pancreas); assay: IC50 Aplidine Family panel (MTT); type: cell-based
[9] = tested on: HT-29 human colon carcinoma; assay: Cytotoxicity IC50 (after Berjeron et al); conditions: Homo sapiens, HT-29, read-out: Cytotoxicity of [aa3]-aplidine Congeners IC50 (Molar) HT29
Source text: as §1, §2, §3

[10] = tested on: MX-1 (Breast); assay: IC50 Aplidine Family panel (MTT/MTS); type: cell-based; conditions: MTT; read-out: IC50 (Molar) Breast MX-1
[11] = tested on: CCRF-SB (ALL, B-cell); assay: IC50 Aplidine Family panel (MTT); type: cell-based; conditions: read-out: IC50 (Molar) ALL (B-cell) CCRF-SB
[12] = tested on: SK-HEP-1 (Liver); assay: IC50 Aplidine Family panel (MTT/MTS); type: cell-based; conditions: read-out: IC50 (Molar) Liver SK-HEP-1
[13] = tested on: HL-60 (ALL, Promyelocytic leukemia); assay: IC50 Aplidine Family panel (MTT/MTS); type: cell-based; conditions: MTT, read-out: IC50 (Molar) ALL (Promyelocytic leukemia) HL-60
[14] = tested on: P388 Murine lymphoma; assay: Cytotoxicity IC50 (after Berjeron et al); conditions: Mus musculus, P388, read-out: Cytotoxicity of [aa3]-aplidine Congeners IC50 (Molar) P388
Source text: as §1, §2, §3

[15] = tested on: MC116 (Lymphoma, undifferentiated); assay: IC50 Aplidine Family panel (MTT/MTS); type: cell-based; conditions: read-out: IC50 (Molar) Lymphoma (undifferentiated) MC116
[16] = tested on: HT-29 (Colon); assay: IC50 Aplidine Family panel (MTT/MTS); type: cell-based, human; conditions: read-out: IC50 (Molar) Colon HT-29
[17] = tested on: SW 694 (Fibrosarcoma); assay: IC50 Aplidine Family panel (MTT/MTS); type: cell-based; conditions: MTT; read-out: IC50 (Molar) Fibrosarcoma SW 694
[18] = tested on: Hs746t (Gastric); assay: IC50 Aplidine Family panel (MTT/MTS); type: cell-based; conditions: read-out: IC50 (Molar) Gastric Hs746t
[19] = tested on: Hut 78 (Lymphoma, Cutaneous T cell); assay: IC50 Aplidine Family panel (MTT); type: cell-based
[20] = tested on: ARH-77 (Leukemia, Plasma cell); assay: IC50 Aplidine Family panel (MTT); type: cell-based; conditions: Homo sapiens, read-out: IC50 (Molar) Leukemia (Plasma cell) ARH-77
[21] = tested on: A549 (NSCL); assay: IC50 Aplidine Family panel (MTT/MTS); type: cell-based, human; conditions: MTT, read-out: IC50 (Molar) NSCL A549
[22] = tested on: H9 (Lymphoma, T cell); assay: IC50 Aplidine Family panel (MTT/MTS); type: cell-based; conditions: MTT, read-out: IC50 (Molar) Lymphoma (T cell) H9
[23] = tested on: K562 (CML, Chronic myelogenous); assay: IC50 Aplidine Family panel (MTT/MTS); type: cell-based; conditions: read-out: IC50 (Molar) CML (Chronic myelogenous) K562
[24] = tested on: 786-O (Renal); assay: IC50 Aplidine Family panel (MTT); type: cell-based
[25] = tested on: P3HR1 (Lymphoma, Burkitts ascites); assay: IC50 Aplidine Family panel (MTT); type: cell-based
[26] = tested on: PC-3 (Prostate); assay: IC50 Aplidine Family panel (MTT); type: cell-based; conditions: read-out: IC50 (Molar) Prostate PC-3
[27] = doses near those required for therapeutic applications; cited from earlier work
[28] = tested on: CHSA (Chondrosarcoma); assay: IC50 Aplidine Family panel (MTS); type: cell-based; conditions: MTS (new); read-out: IC50 (Molar) Chondrosarcoma CHSA
[29] = tested on: LNCAP (Prostate); assay: IC50 Aplidine Family panel (MTS); type: cell-based; conditions: Homo sapiens, MTS (new), read-out: IC50 (Molar) Prostate LNCAP
[30] = tested on: OSA-FH (Osteosarcoma); assay: IC50 Aplidine Family panel (MTS); type: cell-based; conditions: MTS (new); read-out: IC50 (Molar) Osteosarcoma OSA-FH
[31] = tested on: solid tumors like colon, chondrosarcoma and osteosarcoma; assay: MTS assay, specificity against solid tumors; type: cell-based; conditions: with respect to didemnin B (III)
[32] = tested on: Mel-28 (Melanoma); assay: IC50 Aplidine Family panel (MTS); type: cell-based; conditions: Homo sapiens, SK-MEL-28; MTS (new); read-out: IC50 (Molar) Melanoma Mel-28

Work on `CC[C@H](C)[C@H]1NC(=O)[C@@H](NC(=O)[C@@H](CC(C)C)N(C)C(=O)[C@@H]2CCCN2C(=O)C(C)=O)[C@@H](C)OC(=O)[C@H](Cc2ccc(OC)cc2)N(C)C(=O)[C@@H]2CCCN2C(=O)[C@H](CC(C)C)NC(=O)[C@@H](C)C(=O)[C@H](C(C)C)OC(=O)C[C@@H]1O` [SAPL1, Aplidine] (Pyruvoyl-P[dNMeL]T[X1]LP[NMeY](Me); ester 3-C) yielded an IC50 ([1]; Homo sapiens, FaDu, MTT) of 72.9 nM, an IC50 [2] of 0.18 nM and an IC50 ([3]; Homo sapiens, SK-OV-3, read-out: IC50 (Molar) Ovary SK-OV-3) of 72 nM. It also gave an IC50 ([4]; Homo sapiens, MOLT-3, MTT) of 595 nM, an IC50 ([5]; Homo sapiens, U-937, read-out: IC50 (Molar) Lymphoma (Histiocytic) U-937) of 562 nM and an IC50 [6] of 0.45 nM. The IC50 ([7]; MTT) was 35.9 nM, the IC50 ([8]; Homo sapiens, PANC-1, read-out: IC50 (Molar) Pancreas PANC-1) was 170 nM and the IC50 [9] was 0.45 nM. The IC50 [10] was 167 nM, the IC50 ([11]; Homo sapiens, CCRF-SB) was 472 nM and the IC50 ([12]; Homo sapiens, SK-HEP1, MTT) was 94.4 nM. For the same compound, the IC50 ([13]; Homo sapiens, HL-60) was 78.9 nM, the IC50 [14] was 0.18 nM and the IC50 ([15]; Homo sapiens, MC116, MTT) was 921 nM. It also gave an IC50 ([16]; Homo sapiens, HT-29, MTT) of 687 nM, an IC50 [17] of 1490 nM and an IC50 ([18]; Homo sapiens, Hs746T, MTT) of 25.2 nM. The IC50 ([19]; Homo sapiens, HuT78, read-out: IC50 (Molar) Lymphoma (Cutaneous T cell) Hut 78) was 44.7 nM, the IC50 [20] was 178 nM and the IC50 ([21]; Homo sapiens, A549) was 24000 nM. The IC50 ([22]; T-cell) was 525 nM, the IC50 ([23]; Homo sapiens, K562, MTT) was 572 nM and the IC50 ([24]; Homo sapiens, 786-0, read-out: IC50 (Molar) Renal 786-O) was 83.1 nM. The IC50 ([25]; Homo sapiens, P3HR-1, read-out: IC50 (Molar) Lymphoma (Burkitts ascites) P3HR1) was 53.4 nM.
`CC[C@H](C)[C@H]1NC(=O)[C@@H](NC(=O)[C@@H](CC(C)C)N(C)C(=O)[C@@H]2CCCN2C(=O)C(C)O)[C@@H](C)OC(=O)[C@H](Cc2ccc(OC)cc2)N(C)C(=O)[C@@H]2CCCN2C(=O)[C@H](CC(C)C)NC(=O)[C@@H](C)C(=O)[C@H](C(C)C)OC(=O)C[C@@H]1O` (stereo partly shown) [Didemnin B] showed an IC50 ([1]; MTT) of 97.9 nM, an IC50 ([3]; read-out: IC50 (Molar) Ovary SK-OV-3) of 163 nM and an IC50 ([4]; MTT) of 545 nM. For the same compound, the IC50 ([5]; read-out: IC50 (Molar) Lymphoma (Histiocytic) U-937) was 187 nM, the IC50 ([7]; MTT) was 25 nM and the IC50 ([8]; read-out: IC50 (Molar) Pancreas PANC-1) was 0.152 nM. It also gave an IC50 [10] of 1540 nM, an IC50 [11] of 655 nM and an IC50 ([12]; MTT) of 92.1 nM. It also gave an IC50 [26] of 90 nM, an IC50 [13] of 144 nM and an IC50 ([15]; MTT) of 8.84 nM. For the same compound, the IC50 ([16]; MTT) was 80.7 nM, the IC50 [17] was 3280 nM and the IC50 ([18]; MTT) was 6.6 nM. The IC50 ([19]; read-out: IC50 (Molar) Lymphoma (Cutaneous T cell) Hut 78) was 35.6 nM, the IC50 [21] was 121000 nM and the toxicity [27] was “toxic at doses near those required for therapeutic applications”. For the same compound, the IC50 [22] was 213 nM, the IC50 ([23]; MTT) was 3310 nM and the IC50 ([24]; read-out: IC50 (Molar) Renal 786-O) was 290 nM. For the same compound, the IC50 ([25]; read-out: IC50 (Molar) Lymphoma (Burkitts ascites) P3HR1) was 55.8 nM.
For `CC[C@H](C)[C@H]1NC(=O)[C@@H](NC(=O)[C@@H](CC(C)C)N(C)C(=O)[C@@H]2CCCN2C(=O)C(C)=O)[C@@H](C)OC(=O)[C@H](Cc2ccc(OC)cc2)N(C)C(=O)[C@@H]2CCCN2C(=O)[C@H](CC(C)C)NC(=O)[C@H](C(C)C)OC(=O)C[C@@H]1O` [SHPL1, [Hiv]^3-Aplidine] (Pyruvoyl-P[dNMeL]T[X2][Hiv]LP[NMeY](Me); ester 3-C), the IC50 ([1]; Homo sapiens, FaDu, MTS (new)) was 37.1 nM, the IC50 [2] was 0.474 nM and the IC50 ([4]; Homo sapiens, MOLT-3, MTS (new)) was 17.7 nM. For the same compound, the IC50 [28] was 3.45 nM, the IC50 [6] was 0.474 nM and the IC50 ([7]; MTS (new)) was 90.2 nM. It also gave an IC50 [9] of 0.474 nM, an IC50 [29] of 14.6 nM and an IC50 ([12]; Homo sapiens, SK-HEP1, MTS (new)) of 265 nM. It also gave an IC50 [14] of 0.474 nM, an IC50 [30] of 5.89 nM and an IC50 ([15]; Homo sapiens, MC116, MTS (new)) of 382 nM. For the same compound, the IC50 ([16]; Homo sapiens, HT-29, MTS (new)) was 10.2 nM, the “specificity against solid tumors in the MTS assay” value [31] was “more specific against solid tumors like colon, chondrosarcoma and osteosarcoma” and the IC50 ([18]; Homo sapiens, Hs746T, MTS (new)) was 71.6 nM. The IC50 [32] was 486 nM and the IC50 ([23]; Homo sapiens, K562, MTS (new)) was 521 nM.

Source: US20080009435A1, “Synthetic methods for aplidine and new antitumoral derivatives, methods of making and using them” (Pharma Mar, S.A., a Spain corporation, priority 2000, published 2008)
